Reference: ChEMBL document CHEMBL1127717, “Synthesis of new oligosaccharidyl-thio--cyclodextrins (CDS): a novel family of potent drug-targetting vectors” (1994)
Values after ≈ are worked out from the molar mass of the structure shown.

Tested on: not listed separately
Experiment: (§1) In vitro flocculation inhibitory ability was determined towards Yeast cell wall lectin (KbWCL)
Type: functional, Saccharomyces cerevisiae
Details: not given

MIC [µM] | Structure (SMILES)
700 | [Na+].[O-]CC1OC(SCC2OC3OC4C(CSC5OC(CO)C(O)C(O)C5O)OC(OC5C(CSC6OC(CO)C(O)C(O)C6O)OC(OC6C(CSC7OC(CO)C(O)C(O)C7O)OC(OC7C(CSC8OC(CO)C(O)C(O)C8O)OC(OC8C(CSC9OC(CO)C(O)C(O)C9O)OC(OC9C(CSC%10OC(CO)C(O)C(O)C%10O)OC(OC2C(O)C3O)C(O)C9O)C(O)C8O)C(O)C7O)C(O)C6O)C(O)C5O)C(O)C4O)C(O)C(O)C1O (stereo in doubt; 6)
1660 | [Na+].[O-]CC1OC(SCC2OC3OC4C(CSC5OC(CO)C(O)C(O)C5O)OC(OC5C(CSC6OC(CO)C(O)C(O)C6O)OC(OC6C(CSC7OC(CO)C(O)C(O)C7O)OC(OC7C(CSC8OC(CO)C(O)C(O)C8O)OC(OC8C(CSC9OC(CO)C(O)C(O)C9O)OC(OC9C(CSC%10OC(CO)C(O)C(O)C%10O)OC(OC2C(O)C3O)C(O)C9O)C(O)C8O)C(O)C7O)C(O)C6O)C(O)C5O)C(O)C4O)C(O)C(O)C1O (stereo in doubt; 5)
400 (≈ 121 µg/mL) | O=[N+]([O-])c1ccc(O[C@H]2O[C@H](CO)[C@@H](O)[C@H](O)[C@H]2O)cc1 (stereo in doubt; form 1)
830 (≈ 250 µg/mL) | O=[N+]([O-])c1ccc(O[C@H]2O[C@H](CO)[C@@H](O)[C@H](O)[C@H]2O)cc1 (stereo in doubt; form 2)

Same assay, conditions: Saccharomyces cerevisiae; read-out: MIC

MIC [µM] | Structure (SMILES)
1200 (≈ 605 µg/mL) | OC[C@H]1O[C@H](OC[C@H]2O[C@H](O[C@]3(CO)O[C@H](CO)[C@@H](O)[C@@H]3O)[C@H](O)[C@@H](O)[C@@H]2O)[C@H](O)[C@@H](O)[C@H]1O [RAFFINOSE]
410 (≈ 1150 µg/mL) | OCC1OC(SCCSCC2OC3OC4C(CSCCSC5OC(CO)C(O)C(O)C5O)OC(OC5C(CSCCSC6OC(CO)C(O)C(O)C6O)OC(OC6C(CSCCSC7OC(CO)C(O)C(O)C7O)OC(OC7C(CSCCSC8OC(CO)C(O)C(O)C8O)OC(OC8C(CSCCSC9OC(CO)C(O)C(O)C9O)OC(OC9C(CSCCSC%10OC(CO)C(O)C(O)C%10O)OC(OC2C(O)C3O)C(O)C9O)C(O)C8O)C(O)C7O)C(O)C6O)C(O)C5O)C(O)C4O)C(O)C(O)C1O (stereo not given)
2000 (≈ 3190 µg/mL) | O=C(NC[C@@H]1O[C@@H]2O[C@H]3[C@H](O)[C@H](O)[C@@H](O[C@H]4[C@H](O)[C@H](O)[C@@H](O[C@H]5[C@H](O)[C@H](O)[C@@H](O[C@H]6[C@H](O)[C@H](O)[C@@H](O[C@H]7[C@H](O)[C@H](O)[C@@H](O[C@H]8[C@H](O)[C@H](O)[C@@H](O[C@H]1[C@H](O)[C@@H]2O)O[C@H]8CO)O[C@H]7CO)O[C@H]6CO)O[C@H]5CO)O[C@H]4CO)O[C@H]3CO)C(CS[C@@H]1O[C@@H](CO)[C@H](O)[C@H](O)[C@@H]1O)CS[C@@H]1O[C@@H](CO)[C@H](O)[C@H](O)[C@@H]1O
1700 (≈ 2490 µg/mL) | O=C(CCCCCCCC(=O)N[C@@H]1O[C@@H](CO)[C@H](O)[C@H](O)[C@@H]1O)NC[C@@H]1O[C@@H]2O[C@H]3[C@H](O)[C@H](O)[C@@H](O[C@H]4[C@H](O)[C@H](O)[C@@H](O[C@H]5[C@H](O)[C@H](O)[C@@H](O[C@H]6[C@H](O)[C@H](O)[C@@H](O[C@H]7[C@H](O)[C@H](O)[C@@H](O[C@H]8[C@H](O)[C@H](O)[C@@H](O[C@H]1[C@H](O)[C@@H]2O)O[C@H]8CO)O[C@H]7CO)O[C@H]6CO)O[C@H]5CO)O[C@H]4CO)O[C@H]3CO
3500 (≈ 575 µg/mL) | C[C@H]1OC(O)[C@H](O)[C@@H](O)[C@H]1O (stereo not given in full)
3750 (≈ 4920 µg/mL) | OC[C@@H]1O[C@@H](SC[C@@H]2O[C@@H]3O[C@H]4[C@H](O)[C@H](O)[C@@H](O[C@H]5[C@H](O)[C@H](O)[C@@H](O[C@H]6[C@H](O)[C@H](O)[C@@H](O[C@H]7[C@H](O)[C@H](O)[C@@H](O[C@H]8[C@H](O)[C@H](O)[C@@H](O[C@H]9[C@H](O)[C@H](O)[C@@H](O[C@H]2[C@H](O)[C@@H]3O)O[C@H]9CO)O[C@H]8CO)O[C@H]7CO)O[C@H]6CO)O[C@H]5CO)O[C@H]4CO)[C@@H](O)[C@@H](O)[C@@H]1O
600 (≈ 205 µg/mL) | OC[C@H]1O[C@H](OCC2O[C@@H](O)[C@H](O)[C@@H](O)[C@@H]2O)[C@H](O)[C@@H](O)[C@H]1O (stereo not given in full) [MELIBIOSE]

Tested on: Saccharomyces cerevisiae
Experiment: as §1
Type: functional
Details: not given

MIC | Structure (SMILES)
No inhibition | OC1OC[C@@H](O)[C@@H](O)[C@@H]1O (stereo not given in full)
No inhibition | OC[C@H]1O[C@@H]2O[C@H]3[C@H](O)[C@@H](O)[C@@H](O[C@H]4[C@H](O)[C@@H](O)[C@@H](O[C@H]5[C@H](O)[C@@H](O)[C@@H](O[C@H]6[C@H](O)[C@@H](O)[C@@H](O[C@H]7[C@H](O)[C@@H](O)[C@@H](O[C@H]8[C@H](O)[C@@H](O)[C@@H](O[C@H]1[C@H](O)[C@H]2O)O[C@@H]8CO)O[C@@H]7CO)O[C@@H]6CO)O[C@@H]5CO)O[C@@H]4CO)O[C@@H]3CO
No inhibition | OC[C@H]1OC(O)[C@H](O)[C@@H](O)[C@@H]1O (stereo not given in full)
No inhibition | OC[C@H]1O[C@@H]2O[C@H]3[C@H](O)[C@@H](O)[C@@H](O[C@H]4[C@H](O)[C@@H](O)[C@@H](O[C@H]5[C@H](O)[C@@H](O)[C@@H](O[C@H]6[C@H](O)[C@@H](O)[C@@H](O[C@H]7[C@H](O)[C@@H](O)[C@@H](O[C@H]1[C@H](O)[C@H]2O)O[C@@H]7CO)O[C@@H]6CO)O[C@@H]5CO)O[C@@H]4CO)O[C@@H]3CO
